The target in one assay is T1, SMARCA2 (Homo sapiens, UniProt P51531).
T1 construct: SMARCA2-HiBiT knock-in Hela monoclonal cell (CS302366); host or cells: HeLa (CRISPR HiBiT knock-in monoclonal line, heterozygous)
As to the kind of experiment: SMARCA2 HiBiT degradation assay in HeLa cells. The class given is cell-based. Particulars: 18 hours; for DC50: read-out: SMARCA2 IC50; for Dmax: HeLa. How it is done:
(§1) Example A. SMARCA2 HiBiT and SMARCA4 HiBiT Degradation Assay
(§2) Preparation of SMARCA2/4-HiBiT Knock-In Cells
(§3) HiBiT peptide knock-in of SMARCA2 in LgBiT expressing HEK293T cells was performed by CRISPR-mediated tagging system as described Promega. The homozygous HiBiT knock-in on c-terminus SMARCA2 was confirmed by sanger sequence. SMARCA2-HiBiT knock-in Hela monoclonal cell (CS302366) and SMARCA4-HiBiT knock-in Hela monoclonal cell (CS3023226) were purchased from Promega. The heterozygous HiBiT-knock-in was confirmed by sanger sequence in both SMARCA2-HiBiT and SMARCA4-HiBiT monoclonal cells.
(§4) SMARCA2 HiBiT and SMARCA4 HiBiT Degradation Assay in HeLa Cells
(§5) Compounds were dissolved in DMSO to make 10 mM stock and 3-fold series dilutions were further conducted keeping the highest concentration 10 μM. NCIH1693 and NCIH520 cells were maintained in PRMI 1640 medium (Corning Cellgro, Catalog #:10-040-CV) supplemented with 10% v/v FBS (GE Healthcare, Catalog #: SH30910.03) by splitting 1:3 twice a week.
(§6) Dispense 10 ul aliquot of prepared Hela-SMARCA2-HiBiT or Hela-SMARCA4-HiBiT cells (1:1 ratio of cells:Trypan Blue (#1450013, Bio-Rad)) onto cell counting slide (#145-0011, Bio-Rad) and obtain cell density and cell viability using cell counter (TC20, Bio-Rad). Remove appropriate volume of resuspended cells from culture flask to accommodate 2500 cells/well @ 20 μL/well. Transfer Hela-HiBiT cells to 50 mL conical (#430290, Corning). Spin down at 1000 rpm for 5 min using tabletop centrifuge (SPINCHRON 15, Beckman). Discard supernatant and resuspend cell pellet in modified EMEM (#30-2003, ATCC) cell culture media containing 10% FBS (F2422-500ML, Sigma), and 1X Penicillin/Streptomycin (200 g/L) (30-002-CI, Corning) to a cell density of 125,000 cells/mL. Dispense 20 μL of resuspended Hela-HiBit cells per well in 384-well TC treated plate (#12-565-343, Thermo Scientific) using standard cassette (#50950372, Thermo Scientific) on Multidrop Combi (#5840310, Thermo Scientific) inside laminar flow cabinet. Dispense test compounds onto plates using digital liquid dispenser (D300E, Tecan). Incubate plates in humidified tissue culture incubator @37° C. for 18 hours. Add 20 μL of prepared Nano-Glo® HiBiT Lytic detection buffer (N3050, Promega) to each well of 384-well plate using small tube cassette (#24073295, Thermo Scientific) on Multidrop Combi, incubate @ RT for 30-60 min. Read plates on microplate reader (Envision 2105, PerkinElmer) using 384 well Ultra-Sensitive luminescence mode. Raw data files and compound information reports are swept into centralized data lake and deconvoluted using automated scripts designed by TetraScience, Inc. Data analysis, curve-fitting and reporting done in Dotmatics Informatics Suite using Screening Ultra module.
(HiBiT is a short tag that completes a luciferase, so light tracks the accessible tagged protein.)

A further assay has as its target T2, SMARCA4 (Homo sapiens, UniProt P51532).
T2 construct: SMARCA4-HiBiT knock-in Hela monoclonal cell (CS3023226) were purchased from Promega; host or cells: HeLa (CRISPR HiBiT knock-in monoclonal line, heterozygous)
In words: SMARCA4 HiBiT degradation assay in HeLa cells. The format is cell-based. Particulars: 18 hours; for Dmax: HeLa. How it is done:
as §1, §2, §3, §4, §5, §6

The values below come from patent publication US20230365576A1, “BRM Targeting Compounds And Associated Methods Of Use” (Prelude Therapeutics Incorporated, priority 2022, published 2023).

T2 sequence (P51532 whole entry): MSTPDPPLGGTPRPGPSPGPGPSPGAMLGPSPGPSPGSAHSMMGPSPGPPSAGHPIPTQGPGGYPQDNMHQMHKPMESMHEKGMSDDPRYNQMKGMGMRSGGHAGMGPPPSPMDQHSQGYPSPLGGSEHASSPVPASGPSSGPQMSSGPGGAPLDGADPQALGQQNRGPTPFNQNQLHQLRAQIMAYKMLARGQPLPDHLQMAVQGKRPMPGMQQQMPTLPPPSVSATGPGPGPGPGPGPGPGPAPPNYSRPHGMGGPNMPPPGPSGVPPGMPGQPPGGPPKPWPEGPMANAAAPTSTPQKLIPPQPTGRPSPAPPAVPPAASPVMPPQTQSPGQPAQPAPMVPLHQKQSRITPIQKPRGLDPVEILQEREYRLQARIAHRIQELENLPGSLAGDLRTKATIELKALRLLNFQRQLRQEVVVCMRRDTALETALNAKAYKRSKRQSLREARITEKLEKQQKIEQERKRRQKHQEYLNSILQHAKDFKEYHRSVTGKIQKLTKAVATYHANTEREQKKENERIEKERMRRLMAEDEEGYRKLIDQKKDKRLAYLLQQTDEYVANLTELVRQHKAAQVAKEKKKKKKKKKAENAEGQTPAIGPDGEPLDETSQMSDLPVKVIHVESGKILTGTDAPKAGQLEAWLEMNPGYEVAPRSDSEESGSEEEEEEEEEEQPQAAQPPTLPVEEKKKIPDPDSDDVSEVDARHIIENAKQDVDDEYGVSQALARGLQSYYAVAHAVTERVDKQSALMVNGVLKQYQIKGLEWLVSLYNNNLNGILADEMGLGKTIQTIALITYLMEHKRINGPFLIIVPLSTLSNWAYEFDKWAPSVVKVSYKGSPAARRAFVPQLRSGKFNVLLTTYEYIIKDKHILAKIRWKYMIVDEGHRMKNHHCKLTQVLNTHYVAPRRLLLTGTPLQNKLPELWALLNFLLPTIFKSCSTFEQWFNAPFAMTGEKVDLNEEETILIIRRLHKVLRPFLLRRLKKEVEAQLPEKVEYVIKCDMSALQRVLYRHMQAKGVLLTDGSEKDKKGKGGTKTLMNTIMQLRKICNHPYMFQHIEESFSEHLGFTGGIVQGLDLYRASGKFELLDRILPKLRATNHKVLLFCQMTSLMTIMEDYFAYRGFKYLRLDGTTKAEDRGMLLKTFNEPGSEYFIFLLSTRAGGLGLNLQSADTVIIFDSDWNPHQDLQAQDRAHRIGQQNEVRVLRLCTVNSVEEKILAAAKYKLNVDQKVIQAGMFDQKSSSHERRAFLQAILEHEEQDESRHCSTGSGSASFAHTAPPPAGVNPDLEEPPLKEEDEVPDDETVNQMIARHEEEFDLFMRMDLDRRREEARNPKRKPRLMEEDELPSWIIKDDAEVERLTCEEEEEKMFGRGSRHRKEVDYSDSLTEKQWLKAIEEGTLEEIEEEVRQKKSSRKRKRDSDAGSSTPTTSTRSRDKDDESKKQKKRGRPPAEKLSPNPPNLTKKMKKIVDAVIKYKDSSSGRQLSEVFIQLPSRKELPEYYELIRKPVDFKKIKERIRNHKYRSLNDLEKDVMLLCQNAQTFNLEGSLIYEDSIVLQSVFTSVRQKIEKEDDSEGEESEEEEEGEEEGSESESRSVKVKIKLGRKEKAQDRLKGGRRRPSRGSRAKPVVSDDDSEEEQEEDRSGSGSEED
T1 sequence (P51531 whole entry): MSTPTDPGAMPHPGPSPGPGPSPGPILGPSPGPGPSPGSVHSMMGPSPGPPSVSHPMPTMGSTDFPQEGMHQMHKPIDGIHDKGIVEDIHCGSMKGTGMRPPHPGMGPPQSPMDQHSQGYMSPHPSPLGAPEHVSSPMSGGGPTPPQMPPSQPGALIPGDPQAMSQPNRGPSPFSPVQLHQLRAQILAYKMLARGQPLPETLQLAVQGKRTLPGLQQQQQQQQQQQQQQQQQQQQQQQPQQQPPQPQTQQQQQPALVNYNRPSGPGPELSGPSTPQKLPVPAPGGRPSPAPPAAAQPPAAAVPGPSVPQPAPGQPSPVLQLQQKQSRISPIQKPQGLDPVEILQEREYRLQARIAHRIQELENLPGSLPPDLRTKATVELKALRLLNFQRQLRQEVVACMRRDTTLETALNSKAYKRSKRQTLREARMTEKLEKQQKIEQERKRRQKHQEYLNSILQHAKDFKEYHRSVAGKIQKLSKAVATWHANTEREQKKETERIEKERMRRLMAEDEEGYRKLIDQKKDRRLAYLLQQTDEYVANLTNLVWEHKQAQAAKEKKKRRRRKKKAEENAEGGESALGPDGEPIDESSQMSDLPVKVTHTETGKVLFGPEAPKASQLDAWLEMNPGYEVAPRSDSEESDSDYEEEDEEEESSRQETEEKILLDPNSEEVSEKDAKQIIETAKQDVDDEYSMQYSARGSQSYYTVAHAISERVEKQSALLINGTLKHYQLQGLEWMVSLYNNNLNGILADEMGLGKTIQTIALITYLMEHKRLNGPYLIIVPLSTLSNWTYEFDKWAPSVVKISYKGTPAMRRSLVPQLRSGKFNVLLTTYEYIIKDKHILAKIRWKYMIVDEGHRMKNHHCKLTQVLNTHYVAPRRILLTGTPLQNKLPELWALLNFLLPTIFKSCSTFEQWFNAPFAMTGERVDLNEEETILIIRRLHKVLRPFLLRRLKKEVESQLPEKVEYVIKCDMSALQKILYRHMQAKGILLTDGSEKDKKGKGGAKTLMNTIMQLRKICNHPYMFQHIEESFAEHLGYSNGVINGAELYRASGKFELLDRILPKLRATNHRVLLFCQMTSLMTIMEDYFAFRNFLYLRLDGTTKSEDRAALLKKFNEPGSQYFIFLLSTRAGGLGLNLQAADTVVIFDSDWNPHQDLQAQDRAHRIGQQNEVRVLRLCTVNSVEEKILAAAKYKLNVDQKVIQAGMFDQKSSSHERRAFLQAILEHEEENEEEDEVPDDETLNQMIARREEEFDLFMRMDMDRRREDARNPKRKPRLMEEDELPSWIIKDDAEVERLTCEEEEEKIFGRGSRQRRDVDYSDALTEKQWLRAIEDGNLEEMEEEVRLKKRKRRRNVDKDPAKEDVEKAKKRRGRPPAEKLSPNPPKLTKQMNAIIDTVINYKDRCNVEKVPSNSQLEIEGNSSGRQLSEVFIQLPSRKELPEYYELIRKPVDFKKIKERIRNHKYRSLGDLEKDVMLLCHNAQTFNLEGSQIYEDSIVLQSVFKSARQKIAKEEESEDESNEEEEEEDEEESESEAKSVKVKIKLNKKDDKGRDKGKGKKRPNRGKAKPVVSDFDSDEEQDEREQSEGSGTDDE

Regarding `CC1(C)CN(CC2CCN(c3ccc4c(c3)C(=O)N(C3CCC(=O)NC3=O)C4)CC2)CCN1C(=O)N1CCN2c3cc(-c4cccc(F)c4O)nnc3NCC2(C)C1` (mixture of isomers) [Example 6, 3-(6-(4-((4-(2-(3-fluoro-2-hydroxyphenyl)-6a-methyl-6,6a,7,8,9,10-hexahydro-5H-pyrazino[1′,2′:4,5]pyrazino[2,3-c]pyridazine-8-carbonyl)-3,3-dimethylpiperazin-1-yl)methyl)piperidin-1-yl)-1-oxoisoindolin-2-yl)piperidine-2,6-dione], the DC50 on SMARCA2 and on SMARCA4 was less than 100 nM each time. In addition, the Dmax at SMARCA2 and on SMARCA4 was more than 75% in each case.
Regarding `CC1(C)CN(CC2CCN(c3ccc4c(c3)C(=O)N(C3CCC(=O)NC3=O)C4=O)CC2)CCN1C(=O)N1CCN2c3cc(-c4cccc(F)c4O)nnc3NCC2(C)C1` (mixture of isomers) [Example 7, 2-(2,6-dioxopiperidin-3-yl)-5-(4-((4-(2-(3-fluoro-2-hydroxyphenyl)-6a-methyl-6,6a,7,8,9,10-hexahydro-5H-pyrazino[1′,2′:4,5]pyrazino[2,3-c]pyridazine-8-carbonyl)-3,3-dimethylpiperazin-1-yl)methyl)piperidin-1-yl)isoindoline-1,3-dione], the DC50 at SMARCA2 and on SMARCA4 was less than 100 nM throughout. The Dmax – broadly, the greatest extent of degradation seen – is more than 75% at SMARCA2 and 50 to 75% on SMARCA4.
Turning to `CCC12CNc3nnc(-c4cccc(F)c4O)cc3N1CCN(C(=O)N1CCN(CC3CCN(c4ccc5c(c4)C(=O)N(C4CCC(=O)NC4=O)C5)CC3)CC1(C)C)C2` (mixture of isomers) [Example 8, 3-(6-(4-((4-(6a-ethyl-2-(3-fluoro-2-hydroxyphenyl)-6,6a,7,8,9,10-hexahydro-5H-pyrazino[1′,2′:4,5]pyrazino[2,3-c]pyridazine-8-carbonyl)-3,3-dimethylpiperazin-1-yl)methyl)piperidin-1-yl)-1-oxoisoindolin-2-yl)piperidine-2,6-dione], on SMARCA2, the DC50 is less than 100 nM and the Dmax was more than 75%. At SMARCA4, this compound registered a DC50 of less than 100 nM and a maximal degradation (Dmax) of 50 to 75%.
As for `CCC12CNc3nnc(-c4cc(F)cc(F)c4O)cc3N1CCN(C(=O)N1CCN(CC3CCN(c4ccc5c(c4)C(=O)N(C4CCC(=O)NC4=O)C5)CC3)CC1(C)C)C2` (mixture of isomers) [Example 27, 3-(6-(4-((4-(2-(3,5-difluoro-2-hydroxyphenyl)-6a-ethyl-6,6a,7,8,9,10-hexahydro-5H-pyrazino[1′,2′:4,5]pyrazino[2,3-c]pyridazine-8-carbonyl)-3,3-dimethylpiperazin-1-yl)methyl)piperidin-1-yl)-1-oxoisoindolin-2-yl)piperidine-2,6-dione], at SMARCA2, the DC50 was less than 100 nM and the Dmax was more than 75%. On SMARCA4, this compound displayed a DC50 of less than 100 nM and a Dmax of 50 to 75%.
As for `CCC1CN(CC2CN(c3ccc4c(c3)C(=O)N(C3CCC(=O)NC3=O)C4)C2)CCN1C(=O)N1CCN2c3cc(-c4cc(F)cc(F)c4O)nnc3NC[C@H]2C1` (mixture of isomers) [Example 29, 3-(6-(3-((4-((S)-2-(3,5-difluoro-2-hydroxyphenyl)-6,6a,7,8,9,10-hexahydro-5H-pyrazino[1′,2′:4,5]pyrazino[2,3-c]pyridazine-8-carbonyl)-3-ethylpiperazin-1-yl)methyl)azetidin-1-yl)-1-oxoisoindolin-2-yl)piperidine-2,6-dione], at SMARCA2, the DC50 was less than 100 nM and the Dmax was more than 75%. Besides, on SMARCA4, the DC50 is less than 100 nM and the maximal degradation (Dmax) is less than 50%.
For `CC1(C)CN(CC2CCN(c3ccc4c(c3)C(=O)N(C3CCC(=O)NC3=O)C4)CC2)CCN1C(=O)N1CCN2c3cc(-c4cccc(Cl)c4O)nnc3NCC2(C)C1` (mixture of isomers) [Example 31, 3-(6-(4-((4-(2-(3-chloro-2-hydroxyphenyl)-6a-methyl-6,6a,7,8,9,10-hexahydro-5H-pyrazino[1′,2′:4,5]pyrazino[2,3-c]pyridazine-8-carbonyl)-3,3-dimethylpiperazin-1-yl)methyl)piperidin-1-yl)-1-oxoisoindolin-2-yl)piperidine-2,6-dione], at SMARCA2, the DC50 is less than 100 nM and the Dmax lay in the range of 50 to 75%. Further, at SMARCA4, the DC50 is less than 100 nM and the Dmax is less than 50%.
For `CCC12CNc3nnc(-c4cccc(F)c4O)cc3N1CCN(C(=O)N1CCN(CC3CCN(c4ccc5c(c4)C(=O)N(C4CCC(=O)NC4=O)C5=O)CC3)CC1(C)C)C2` (mixture of isomers) [Example 32, 2-(2,6-dioxopiperidin-3-yl)-5-(4-((4-(6a-ethyl-2-(3-fluoro-2-hydroxyphenyl)-6,6a,7,8,9,10-hexahydro-5H-pyrazino[1′,2′:4,5]pyrazino[2,3-c]pyridazine-8-carbonyl)-3,3-dimethylpiperazin-1-yl)methyl)piperidin-1-yl)isoindoline-1,3-dione], on SMARCA2, the DC50 was less than 100 nM and the Dmax was 50 to 75%. At SMARCA4, this compound showed a DC50 of less than 100 nM and a Dmax of less than 50%.
With `CCC1CN(CC2CCN(c3ccc4c(c3)C(=O)N(C3CCC(=O)NC3=O)C4)CC2)CCN1C(=O)N1CCN2c3cc(-c4cc(F)cc(F)c4O)nnc3NC[C@H]2C1` (mixture of isomers) [Example 35, 3-(6-(4-((4-((S)-2-(3,5-difluoro-2-hydroxyphenyl)-6,6a,7,8,9,10-hexahydro-5H-pyrazino[1′,2′:4,5]pyrazino[2,3-c]pyridazine-8-carbonyl)-3-ethylpiperazin-1-yl)methyl)piperidin-1-yl)-1-oxoisoindolin-2-yl)piperidine-2,6-dione], on SMARCA2, the DC50 is less than 100 nM and the Dmax was more than 75%. In addition, at SMARCA4, the DC50 is less than 100 nM and the Dmax was 50 to 75%.
As for `C[C@@H]1CN(C[C@H]2CCN(c3ccc4c(c3)C(=O)N(C3CCC(=O)NC3=O)C4)C[C@@H]2F)C[C@H](C)N1C(=O)N1CCN2c3cc(-c4cc(F)cc(F)c4O)nnc3NC[C@H]2C1` (mixture of isomers) [Example 42, 3-(6-((rac-3R,4R)-4-(((3S,5R)-4-((S)-2-(3,5-difluoro-2-hydroxyphenyl)-6,6a,7,8,9,10-hexahydro-5H-pyrazino[1′,2′:4,5]pyrazino[2,3-c]pyridazine-8-carbonyl)-3,5-dimethylpiperazin-1-yl)methyl)-3-fluoropiperidin-1-yl)-1-oxoisoindolin-2-yl)piperidine-2,6-dione], on SMARCA2, the DC50 is less than 100 nM and the Dmax was more than 75%. Also, on SMARCA4, the DC50 was less than 100 nM and the Dmax is less than 50%.
On to `CC1(C)CN(CC2CCN(c3ccc4c(c3)C(=O)N(C3CCC(=O)NC3=O)C4)CC2)CCN1C(=O)N1CCN2c3cc(-c4cccc(F)c4O)nnc3NCC2(C)C1` (single isomer, unassigned) [Example 9, 3-(6-(4-((4-(2-(3-fluoro-2-hydroxyphenyl)-6a-methyl-6,6a,7,8,9,10-hexahydro-5H-pyrazino[1′,2′:4,5]pyrazino[2,3-c]pyridazine-8-carbonyl)-3,3-dimethylpiperazin-1-yl)methyl)piperidin-1-yl)-1-oxoisoindolin-2-yl)piperidine-2,6-dione], for which, on SMARCA2, the DC50 is less than 100 nM and the Dmax was more than 75%. Besides, at SMARCA4, the DC50 is less than 100 nM and the “SMARCA4 DMax %” value is listed as “A (A=Dmax>75%)”.
